Values joined by “and” are separate entries in the source; they are usually repeats but may differ in a detail not shown here. Equal values may be shown once. Read-outs that look alike come from different tables or passages of the source.
Experiments:
HUT-78 cells [1] = test: Uptake in presence and absence of verapamil by flow cytometry; format: cell-based, human; settings: 2 × 10^−7 M selenorhodamine, 1 × 10^−4 M VER, 1 h, mean ± SD
HUT-78 cells [2] = format: cell-based, human
[3] = tested on: CD3+ cells of SEB-stimulated PBMCs; format: cell-based, human
CD3+ (CD25+) cells = format: cell-based, human
CD3+ (CD25−) cells = format: cell-based, human
[4] = in CH3OH; cited from earlier work
[5] = in CH3OH, cited from earlier work; for Quantum yield for fluorescence ΦFL: excitation at 532 nm, ± SD
[6] = CH3OH, ± SD; cited from earlier work
P-gp [7] = biological target: T1, P-gp (Homo sapiens, UniProt P08183); settings: cited from earlier work; for PPassive: mean of PAB and PBA in the fully inhibited system; for PAB, transport in absorptive direction / PBA, transport in secretory direction / PBA/PAB: no inhibitor; for PAB, transport in absorptive direction (+inh) / PBA, transport in secretory direction (+inh): with inhibitor
T1 sequence (P08183 whole entry): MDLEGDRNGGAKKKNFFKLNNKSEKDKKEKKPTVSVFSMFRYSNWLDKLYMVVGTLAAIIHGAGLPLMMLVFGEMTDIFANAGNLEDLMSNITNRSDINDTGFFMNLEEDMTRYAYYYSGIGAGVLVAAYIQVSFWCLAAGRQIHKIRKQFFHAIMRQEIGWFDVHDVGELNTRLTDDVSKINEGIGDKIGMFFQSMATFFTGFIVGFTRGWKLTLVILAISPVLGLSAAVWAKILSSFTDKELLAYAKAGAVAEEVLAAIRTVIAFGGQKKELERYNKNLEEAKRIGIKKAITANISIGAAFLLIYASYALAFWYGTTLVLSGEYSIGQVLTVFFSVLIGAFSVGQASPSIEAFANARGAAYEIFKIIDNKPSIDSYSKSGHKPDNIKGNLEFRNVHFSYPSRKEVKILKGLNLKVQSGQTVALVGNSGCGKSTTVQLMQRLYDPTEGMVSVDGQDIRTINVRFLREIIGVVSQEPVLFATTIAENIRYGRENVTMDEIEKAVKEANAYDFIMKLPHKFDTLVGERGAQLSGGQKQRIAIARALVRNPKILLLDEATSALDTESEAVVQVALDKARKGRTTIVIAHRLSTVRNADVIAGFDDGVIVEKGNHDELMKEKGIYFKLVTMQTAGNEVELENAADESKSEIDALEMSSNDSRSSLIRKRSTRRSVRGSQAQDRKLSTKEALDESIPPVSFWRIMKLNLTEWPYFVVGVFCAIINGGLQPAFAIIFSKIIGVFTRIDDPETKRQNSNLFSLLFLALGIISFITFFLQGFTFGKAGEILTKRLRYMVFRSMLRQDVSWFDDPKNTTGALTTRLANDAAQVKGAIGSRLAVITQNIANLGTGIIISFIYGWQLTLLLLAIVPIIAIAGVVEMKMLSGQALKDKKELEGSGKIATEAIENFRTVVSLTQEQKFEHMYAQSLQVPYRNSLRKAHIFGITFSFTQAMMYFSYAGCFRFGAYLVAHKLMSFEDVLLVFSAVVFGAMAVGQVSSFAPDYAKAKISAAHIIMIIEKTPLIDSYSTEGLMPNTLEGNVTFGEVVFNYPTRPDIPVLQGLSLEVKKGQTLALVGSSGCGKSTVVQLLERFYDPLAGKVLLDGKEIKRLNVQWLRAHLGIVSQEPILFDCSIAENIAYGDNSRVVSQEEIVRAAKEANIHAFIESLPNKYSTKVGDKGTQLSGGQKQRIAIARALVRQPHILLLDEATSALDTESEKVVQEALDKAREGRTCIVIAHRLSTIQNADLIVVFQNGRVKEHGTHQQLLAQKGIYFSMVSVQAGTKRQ

Colo-26 cells = settings: P-gp-expressing Colo-26 cells; cited from earlier work
[8] = ± SD; cited from earlier work
P-gp [9] = biological target: T1, P-gp; test: P-gp transport studies across MDCKII-MDR1 monolayers; settings: for PPassive: mean of PAB and PBA in the fully inhibited system; for PBA/PAB / PAB, transport in absorptive direction / PBA, transport in secretory direction: no inhibitor; for PAB, transport in absorptive direction / PBA, transport in secretory direction / PAB, transport in absorptive direction (+inh) / PBA, transport in secretory direction (+inh): 5 × 10^−6 M dye, 4.3 mg mL^−1 BSA, ± SD; for PAB, transport in absorptive direction (+inh) / PBA, transport in secretory direction (+inh): with 5 × 10^−6 M inhibitor 15
CD3+ (resting T cells) = format: cell-based, human
[10] = Electronic absorption spectra in MeOH; format: physicochemical; settings: in CH3OH
[11] = Steady-state fluorescence spectra and quantum yields in CH3OH; format: physicochemical; settings: for Quantum yield for fluorescence ΦFL: excitation at 532 nm, ± SD
[12] = format: physicochemical; settings: air-saturated CH3OH, ± SD
CD4+ (helper T cells) = format: cell-based, human
CD8+ (cytotoxic T cells) = format: cell-based, human
HUT-78 cells [13] = test: Colocalization with organelle reporters by ImageStream imaging flow cytometry; format: cell-based, human; settings: ± SD

Row | Compound | ratio of uptake +VER/−VER (HUT-78 cells [1]) | % survival HUT-78 (HUT-78 cells [2]) [%] | % survival CD3+ [3] [%] | % survival CD3+ (CD25+) (CD3+ (CD25+) cells) [%] | % survival CD3+ (CD25−) (CD3+ (CD25−) cells) [%] | Absorption maximum λmax [4] [nm] | Molar extinction coefficient ε [4] [M⁻¹ cm⁻¹] | Quantum yield for fluorescence ΦFL [5] | Fluorescence emission maximum λFL [5] [nm] | Quantum yield for the generation of singlet oxygen Φ(1O2) [6] | ratio of uptake +VER/−VER (Colo-26 cells) | n-octanol/water partition coefficient log P [8] | PPassive (P-gp [9]) | PBA/PAB (P-gp [9]) | PAB, transport in absorptive direction (P-gp [9]) | PBA, transport in secretory direction (P-gp [9]) | PAB, transport in absorptive direction (+inh) (P-gp [9]) | PBA, transport in secretory direction (+inh) (P-gp [9]) | Absorption maximum λmax [10] [nm] | Molar extinction coefficient ε [10] [M⁻¹ cm⁻¹] | other results
1 | CN1CCC(C)(C)c2cc3c(-c4ccc(C(=S)N5CCCCC5)s4)c4ccc(=[N+](C)C)cc-4[se]c3cc21.[Cl-] [Compd 3] | 1.27 ± 0.19 | 8.5 ± 1.2 | 21.0 ± 3.2 | 9.2 ± 1.0 | 29.1 ± 5.2 | 608 | 81100 | 0.008 ± 0.001 | 634 | 0.44 ± 0.03 | 1.9 | 1.61 ± 0.06 | – | – | – | – | – | – | – | – | PPassive (P-gp [7]): ~2 ×10^−9 m s^−1; PAB, transport in absorptive direction (P-gp [7]): 1.9 ± 0.5 ×10^−9 m s^−1; PBA, transport in secretory direction (P-gp [7]): 29 ×10^−9 m s^−1 and 29 ± 3 ×10^−9 m s^−1; PBA/PAB (P-gp [7]): 15; PAB, transport in absorptive direction (+inh) (P-gp [7]): 1.7 ± 0.2 ×10^−9 m s^−1; PBA, transport in secretory direction (+inh) (P-gp [7]): 1.8 ± 0.1 ×10^−9 m s^−1
2 | CN1CCC(C)(C)c2cc3c(-c4ccc(C(=O)N5CCCCC5)s4)c4ccc(=[N+](C)C)cc-4[se]c3cc21.[Cl-] [Compd 4] | 1.33 ± 0.04 | 6.7 ± 1.2 | 26.6 ± 4.6 | 17.4 ± 1.7 | 32.3 ± 6.0 | 609 | 87300 | 0.009 ± 0.001 | 634 | 0.48 ± 0.03 | 5.1 | 2.23 ± 0.04 | – | – | – | – | – | – | – | – | PPassive (P-gp [7]): ~6 ×10^−9 m s^−1; PAB, transport in absorptive direction (P-gp [7]): 0.9 ± 0.3 ×10^−9 m s^−1; PBA, transport in secretory direction (P-gp [7]): 164 ×10^−9 m s^−1 and 164 ± 4 ×10^−9 m s^−1; PBA/PAB (P-gp [7]): 182; PAB, transport in absorptive direction (+inh) (P-gp [7]): 1.0 ± 0.1 ×10^−9 m s^−1; PBA, transport in secretory direction (+inh) (P-gp [7]): 11.1 ± 0.2 ×10^−9 m s^−1
3 | S=C(c1ccc(C2=c3cc4c5c(c3[Se]c3c2cc2c6c3CCCN6CCC2)CCC[N+]=5CCC4)s1)N1CCCCC1.[Cl-] [Compd 5, 9-(5-(piperidylcarbamothioyl)thiophen-2-yl)-2,3,6,7,12,13,16,17-octahydro-[1H,5H,11H,15H]-10-selenoxantheno[2,3,4-ij:5,6,7-i′j′]diquinolizin-18-ium chloride] | 1.17 ± 0.13 | 2.0 ± 0.9 | 12.1 ± 2.6 | 4.8 ± 1.0 | 17.1 ± 4.3 | 626 | 99000 | 0.010 ± 0.002 | 660 | 0.51 ± 0.03 | 2.9 | 4.1 ± 0.2 | <1 ×10^−9 m s^−1 | 57 | 0.3 ± 0.3 ×10^−9 m s^−1 | 18 ×10^−9 m s^−1 | 0.51 ± 0.3 ×10^−9 m s^−1 | 0.57 ± 0.1 ×10^−9 m s^−1 | – | – | –
4 | O=C(c1ccc(C2=c3cc4c5c(c3[Se]c3c2cc2c6c3CCCN6CCC2)CCC[N+]=5CCC4)s1)N1CCCCC1.[Cl-] [Compd 6, 9-(5-(piperidylcarbamoyl)thiophen-2-yl)-2,3,6,7,12,13,16,17-octa-hydro[1H,5H,11H,15H]-10-selenoxantheno-[2,3,4-ij:5,6,7-i′j′]diquinolizin-18-ium chloride] | 1.13 ± 0.08 | 9.3 ± 2.7 | 65 | 37.4 ± 3.2 | – | 626 | 135000 | 0.012 ± 0.001 | 660 | 0.64 ± 0.03 | 7.6 | 3.71 ± 0.08 | ~2 ×10^−9 m s^−1 | 37 | 2.1 ± 0.1 ×10^−9 m s^−1 | 78 ×10^−9 m s^−1 | 0.24 ± 0.1 ×10^−9 m s^−1 | 4.8 ± 0.1 ×10^−9 m s^−1 | – | – | % survival of the CD3+, CD4+, and CD8+ populations (CD3+ (resting T cells)): 62–78%; % of HUT-78 cells to which the photosensitizer was phototoxic (HUT-78 cells [2]): > 90% and 91%
5 | C[N+]1=c2cc3c(cc2C(C)(C)CC1)=C(c1ccc(C(=S)N2CCCCC2)s1)c1cc2c4c(c1[Se]3)CCCN4CCC2.[Cl-] [Compd 7] | – | 5.1 ± 0.9 | 5.7 ± 2.6 | 2.6 ± 0.9 | – | – | – | – | – | – | – | – | <1 ×10^−9 m s^−1 | 20 | 0.44 ± 0.1 ×10^−9 m s^−1 | 8.8 ×10^−9 m s^−1 and 8.8 ± 0.3 ×10^−9 m s^−1 | 0.46 ± 0.1 ×10^−9 m s^−1 | 0.32 ± 0.2 ×10^−9 m s^−1 | 620 | 92000 | Fluorescence emission maximum λFL [11]: 650 nm; Quantum yield for fluorescence ΦFL [11]: 0.008 ± 0.001; Quantum yield for the generation of singlet oxygen Φ(1O2) [12]: 0.54 ± 0.03; % survival CD4+ (CD4+ (helper T cells)): 0 ± 0%; % survival CD8+ (CD8+ (cytotoxic T cells)): 0 ± 0%
6 | C[N+]1=c2cc3c(cc2C(C)(C)CC1)=C(c1ccc(C(=O)N2CCCCC2)s1)c1cc2c4c(c1[Se]3)CCCN4CCC2.[Cl-] [Compd 8] | – | 6.0 ± 0.2 | 10.3 ± 1.4 | 5.0 ± 0.9 | – | – | – | – | – | – | – | – | ~1 ×10^−9 m s^−1 | 48 | 1.4 ± 0.8 ×10^−9 m s^−1 | 66 ×10^−9 m s^−1 and 66 ± 10 ×10^−9 m s^−1 | 0.18 ± 0.1 ×10^−9 m s^−1 | 2.8 ± 0.2 ×10^−9 m s^−1 | 620 | 110000 | Fluorescence emission maximum λFL [11]: 650 nm; Quantum yield for fluorescence ΦFL [11]: 0.009 ± 0.001; Quantum yield for the generation of singlet oxygen Φ(1O2) [12]: 0.64 ± 0.03
7 | CN1CCC(C)(C)c2cc3c(cc21)[Se]c1cc2c(cc1=C3c1ccc(C(=S)N3CCCCC3)s1)C(C)(C)CC[N+]=2C.[Cl-] [Compd 9] | – | 8.1 ± 4.1 | 9.2 ± 2.2 | 7.0 ± 0.7 | – | – | – | – | – | – | – | – | <1 ×10^−9 m s^−1 | 4 | – | 6.3 ×10^−9 m s^−1 and 6.3 ± 1.2 ×10^−9 m s^−1 | 0.51 ± 0.1 ×10^−9 m s^−1 | 0.13 ± 0.1 ×10^−9 m s^−1 | 614 | 93000 | Fluorescence emission maximum λFL [11]: 645 nm; Quantum yield for fluorescence ΦFL [11]: 0.006 ± 0.001; Quantum yield for the generation of singlet oxygen Φ(1O2) [12]: 0.64 ± 0.03; % survival CD4+ (CD4+ (helper T cells)): 0 ± 0%; % survival CD8+ (CD8+ (cytotoxic T cells)): 0 ± 0%
8 | CN1CCC(C)(C)c2cc3c(cc21)[Se]c1cc2c(cc1=C3c1ccc(C(=O)N3CCCCC3)s1)C(C)(C)CC[N+]=2C.[Cl-] [Compd 10] | – | 5.4 ± 0.8 | 22.2 ± 2.9 | 12.5 ± 0.4 | 29.8 ± 5.6 | – | – | – | – | – | – | – | ~2 ×10^−9 m s^−1 | 36 | 1.8 ± 1 ×10^−9 m s^−1 | 65 ×10^−9 m s^−1 and 65 ± 6 ×10^−9 m s^−1 | 0.51 ± 0.1 ×10^−9 m s^−1 | 4.0 ± 0.7 ×10^−9 m s^−1 | 614 | 105000 | Fluorescence emission maximum λFL [11]: 645 nm; Quantum yield for fluorescence ΦFL [11]: 0.007 ± 0.001; Quantum yield for the generation of singlet oxygen Φ(1O2) [12]: 0.95 ± 0.03
9 | MitoTracker Red [Compd 17] | – | – | – | – | – | – | – | – | – | – | – | – | – | – | – | – | – | – | – | – | mean bright detail similarity score with 18 (LYS) (HUT-78 cells [13]; lysosome-specific reporter LysoTracker): 0.6 ± 0.4; mean bright detail similarity score with 16 (MTG) (HUT-78 cells [13]; mitochondrial reporter MitoTracker Green): 3.1 ± 0.7
